# Article PMC3348135, “Identification of New Agonists and Antagonists of the Insect Odorant Receptor Co-Receptor Subunit” (PLoS ONE, 2012)
# Like-named read-outs stand apart in the source and are kept apart here.
# Columns and labels:
# Cqui\Orco + Cqui\Or10 [1] = molecular target: T1, Cqui\Orco + Cqui\Or10 (Culex quinquefasciatus, UniProt D5LMR7+Q309I4); assay: Activation of Cqui\Orco + Cqui\Or10 in Xenopus oocytes, two-electrode voltage clamp; assay type: cell-based; conditions: 100 µM compound; mean ± SEM, n=3-8; read-out: Response amplitude as percentage of response to 100 µM OLC3, Cqui\Orco + Cqui\Or10
# T1 sequence (D5LMR7 entry or part of it): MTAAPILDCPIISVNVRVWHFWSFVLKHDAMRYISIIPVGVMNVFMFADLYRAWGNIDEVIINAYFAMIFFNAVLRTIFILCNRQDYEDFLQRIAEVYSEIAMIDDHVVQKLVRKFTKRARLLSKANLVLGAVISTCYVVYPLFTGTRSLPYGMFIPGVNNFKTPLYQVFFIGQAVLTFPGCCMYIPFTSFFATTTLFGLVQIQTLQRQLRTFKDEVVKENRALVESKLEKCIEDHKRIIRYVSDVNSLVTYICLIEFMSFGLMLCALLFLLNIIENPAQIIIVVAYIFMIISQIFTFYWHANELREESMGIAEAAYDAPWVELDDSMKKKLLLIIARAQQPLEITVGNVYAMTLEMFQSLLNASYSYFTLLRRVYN
# T1 sequence (Q309I4 entry or part of it): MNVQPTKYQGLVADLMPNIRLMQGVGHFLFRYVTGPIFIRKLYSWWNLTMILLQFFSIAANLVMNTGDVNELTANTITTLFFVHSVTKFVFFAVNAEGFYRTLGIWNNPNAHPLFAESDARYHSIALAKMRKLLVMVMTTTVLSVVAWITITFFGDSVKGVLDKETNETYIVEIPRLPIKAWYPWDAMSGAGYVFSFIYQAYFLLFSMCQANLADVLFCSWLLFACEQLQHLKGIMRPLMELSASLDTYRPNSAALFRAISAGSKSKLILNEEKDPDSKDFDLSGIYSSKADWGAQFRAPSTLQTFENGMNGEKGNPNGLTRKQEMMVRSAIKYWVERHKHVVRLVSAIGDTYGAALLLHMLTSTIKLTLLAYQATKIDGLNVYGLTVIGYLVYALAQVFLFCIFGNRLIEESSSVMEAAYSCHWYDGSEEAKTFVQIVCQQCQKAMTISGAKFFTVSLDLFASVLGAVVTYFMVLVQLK
# Procedure: (§1) Oocytes were surgically removed from mature Xenopus laevis frogs. Follicle cells were removed by treatment with Collagenase B (Boehringer Mannhem) for 2 hours at room temperature. Capped cRNA encoding each DmOR subunit was generated using mMessage mMachine kits (Ambion). For heteromeric ORs, 25 ng of cRNA encoding each OR subunit was injected into Stage V-VI Xenopus oocytes. For expression of Orco alone, 50 ng of cRNA was injected. Oocytes were incubated at 18°C in Barth’s saline (in mM: 88 NaCl, 1 KCl, 2.4 NaHCO3, 0.3 CaNO3, 0.41 CaCl2, 0.82 MgSO4, 15 HEPES, pH 7.6, and 150 µg/ml ceftazidime) for 2–5 days prior to electrophysiological recording.
# (§2) Odorant and Orco ligand induced currents were recorded under two-electrode voltage clamp in Xenopus laevis oocytes expressing ORs, using an automated parallel electrophysiology system (OpusExpress 6000A; Molecular Devices). Oocytes were perfused with ND96 (in mM: 96 NaCl, 2 KCl, 1 CaCl2, 1 MgCl2, 5 HEPES, pH 7.5). Odorant stock solutions (0.5 or 1 M) and Orco ligand stock solutions (100 mM) were prepared in DMSO and diluted in ND96. Unless otherwise noted, applications were for 60 sec at a flow rate of 1.0 ml/min, with extensive washing in ND96 (9 or 20 min at 4.6 ml/min) between applications. Micropipettes were filled with 3 M KCl and had resistances of 0.2−2.0 MΩ. The holding potential was −70 mV. Current responses, filtered (4-pole, Bessel, low pass) at 20 Hz (−3 db) and sampled at 100 Hz, were captured and stored using OpusXpress 1.1 software (Molecular Devices).
# (§3) Initial analysis of electrophysiological data was done using Clampfit 9.1 software (Molecular Devices). Curve fitting and statistical analyses were done using Prism 5 (Graphpad). Concentration-response data were fit to the equation: I = Imax/(1+(EC50/X)^n) where I represents the current response at a given concentration of odorant, X; Imax is the maximal response; EC50 is the concentration of agonist yielding a half maximal response; n is the apparent Hill coefficient. Concentration-inhibition data were fit to the equation: I = Imax/(1+(X/IC50)^n) where I represents the current response at a given concentration of inhibitor, X; Imax is the maximal response in the absence of inhibitor; IC50 is the concentration of inhibitor present that still allows a half maximal response from odorant; n is the apparent Hill coefficient. Statistical significance was assessed using a two-tailed unpaired t test, an F test, or a one-way analysis of variance followed by the Bonferroni’s post-test, as appropriate.
# Dmel\Orco [2] = molecular target: T2, Dmel\Orco (Drosophila melanogaster, UniProt Q9VNB5); assay: Agonist activation of homomeric Dmel\Orco in Xenopus oocytes, two-electrode voltage clamp; assay type: cell-based; conditions: read-out: Response amplitude as percentage of response to 100 µM OLC3, Dmel\Orco
# T2 construct: expressed in transfected cells; host or cells: Xenopus laevis oocytes (cRNA injection, pGEMHE)
# T2 sequence (Q9VNB5 1-486): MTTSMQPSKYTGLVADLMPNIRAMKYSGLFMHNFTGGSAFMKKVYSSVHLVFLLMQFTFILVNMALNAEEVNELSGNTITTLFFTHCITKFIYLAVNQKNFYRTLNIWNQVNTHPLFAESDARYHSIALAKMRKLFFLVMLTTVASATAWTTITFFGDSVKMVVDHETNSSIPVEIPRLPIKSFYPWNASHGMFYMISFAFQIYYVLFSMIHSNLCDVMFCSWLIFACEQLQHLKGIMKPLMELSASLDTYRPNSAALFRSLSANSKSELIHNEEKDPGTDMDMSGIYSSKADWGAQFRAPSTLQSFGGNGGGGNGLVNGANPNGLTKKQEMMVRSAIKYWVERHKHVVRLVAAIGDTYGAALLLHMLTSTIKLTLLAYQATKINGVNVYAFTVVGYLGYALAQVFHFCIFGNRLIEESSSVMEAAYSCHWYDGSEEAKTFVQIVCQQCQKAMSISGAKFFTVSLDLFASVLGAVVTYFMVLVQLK
# Procedure: as §1, §2, §3
# Dmel\Orco + Dmel\Or35a [3] = molecular target: T3, Dmel\Orco + Dmel\Or35a (Drosophila melanogaster, UniProt Q9VNB5); assay: Inhibition of odorant (hexanol) activation of Dmel\Orco + Dmel\Or35a in Xenopus oocytes; assay type: cell-based; conditions: 3 µM hexanol; OLC2 100 µM, OLC15 50 µM, OLC20 200 µM
# T3 construct: expressed in transfected cells; host or cells: Xenopus laevis oocytes (cRNA injection, pGEMHE)
# T3 sequence (Q9VNB5 1-486): T2 sequence (Q9VNB5 1-486)
# T3 sequence (Q9V3Q2 1-409 partner): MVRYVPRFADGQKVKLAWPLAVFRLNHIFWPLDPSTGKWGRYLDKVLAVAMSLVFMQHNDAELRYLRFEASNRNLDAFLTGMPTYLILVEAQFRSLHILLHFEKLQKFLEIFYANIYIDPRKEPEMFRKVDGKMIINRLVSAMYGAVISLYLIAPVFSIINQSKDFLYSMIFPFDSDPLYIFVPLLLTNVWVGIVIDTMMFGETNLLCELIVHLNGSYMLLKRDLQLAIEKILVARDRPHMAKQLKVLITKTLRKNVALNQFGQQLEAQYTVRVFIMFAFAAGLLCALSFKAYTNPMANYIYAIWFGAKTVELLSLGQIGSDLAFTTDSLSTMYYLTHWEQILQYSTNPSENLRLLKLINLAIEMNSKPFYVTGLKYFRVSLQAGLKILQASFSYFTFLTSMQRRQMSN
# Procedure: as §1, §2
# In inhibition assays, oocytes were exposed to 60 sec applications of OLC12 with 9 min washes between applications (Fig. 3 and 4) or 60 sec applications of odorant with 20 min washes between applications (Fig. 5). […]
# (§4) Initial analysis of electrophysiological data was done using Clampfit 9.1 software (Molecular Devices). […] Statistical significance was assessed using a two-tailed unpaired t test, an F test, or a one-way analysis of variance followed by the Bonferroni’s post-test, as appropriate.
# Dmel\Orco + Dmel\Or35a [4] = molecular target: T3, Dmel\Orco + Dmel\Or35a; assay: Agonist activation of Dmel\Orco + Dmel\Or35a in Xenopus oocytes, two-electrode voltage clamp; assay type: cell-based; conditions: read-out: Response amplitude as percentage of response to 100 µM OLC3, Dmel\Orco + Dmel\Or35a
# Procedure: as §1, §2, §3
# Cqui\Orco + Cqui\Or10 [5] = molecular target: T1, Cqui\Orco + Cqui\Or10; assay: Inhibition of odorant (3-methylindole) activation of Cqui\Orco + Cqui\Or10 in Xenopus oocytes; assay type: cell-based; conditions: for Inhibition of activation of Cqui\Orco+Cqui\Or10 by 3-methylindole: 100 nM 3-methylindole, OLC compound 100 µM
# Dmel\Orco [6] = molecular target: T2, Dmel\Orco; assay: Inhibition of OLC12 activation of Dmel\Orco in Xenopus oocytes; assay type: cell-based; conditions: for IC50: activated by 30 µM OLC12 (EC39)
# Procedure: as §1, §2
# In inhibition assays, oocytes were exposed to 60 sec applications of OLC12 with 9 min washes between applications (Fig. 3 and 4) or 60 sec applications of odorant with 20 min washes between applications (Fig. 5). Oocytes were then exposed to a 90 sec application of antagonist candidate, immediately followed by a 60 sec co-application of antagonist candidate and OLC12 or odorant. Oocytes were then exposed to a final 60 sec application of OLC12 or odorant. The current response in the presence of antagonist candidate was compared to the preceding response(s) to OLC12 (or odorant) alone.
# as §3
# Onub\Orco + Onub\Or1 = assay: Inhibition of odorant (E12-14:OAc) activation of Onub\Orco + Onub\Or1 in Xenopus oocytes; assay type: cell-based, Ostrinia nubilalis; conditions: OLC compound 100 µM
# Procedure: as §1
# Odorant and Orco ligand induced currents were recorded under two-electrode voltage clamp in Xenopus laevis oocytes expressing ORs, using an automated parallel electrophysiology system (OpusExpress 6000A; Molecular Devices). Oocytes were perfused with ND96 (in mM: 96 NaCl, 2 KCl, 1 CaCl2, 1 MgCl2, 5 HEPES, pH 7.5). Odorant stock solutions (0.5 or 1 M) and Orco ligand stock solutions (100 mM) were prepared in DMSO and diluted in ND96. […]
# as §4
Compound,Emax at 100 µM (Cqui\Orco + Cqui\Or10 [1]),Emax at 100 µM (Dmel\Orco [2]),Inhibition of the hexanol response of Dmel\Orco+Dmel\Or35a (Dmel\Orco + Dmel\Or35a [3]),Emax at 100 µM (Dmel\Orco + Dmel\Or35a [4]),Inhibition of activation of Cqui\Orco+Cqui\Or10 by 3-methylindole (Cqui\Orco + Cqui\Or10 [5]),Inhibition of activation of Dmel\Orco by 30 µM OLC12 on co-application (Dmel\Orco [6]; 100 µM compound co-applied with 30 µM OLC12),IC50 (Dmel\Orco [6]),Inhibition of activation of Onub\Orco+Onub\Or1 by E12-14:OAc (Onub\Orco + Onub\Or1),"IC50 (Cqui\Orco + Cqui\Or10 [5]; activated by 10 nM 3-methylindole (EC10), read-out: IC50 for inhibition of responses to 10 nM 3-MI)","IC50 (Cqui\Orco + Cqui\Or10 [5]; activated by 100 nM 3-methylindole (EC53), read-out: IC50 for inhibition of responses to 100 nM 3-MI)"
CCc1ccc(NC(=O)CSc2nnc(-c3ccccn3)n2CC)cc1 [OLC2],0%,0%,did not inhibit,2 ± 1%,inhibited,inhibits,23 ± 3 µM,inhibited,–,–
CCCCc1ccc(NC(=O)CSc2nnc(-c3ccccn3)n2CC)cc1 [OLC15],0%,0%,substantial inhibition,0%,inhibited,–,15 ± 2 µM,inhibited,1.5 ± 0.2 µM,2 ± 0.3 µM
